Measurements as given in PMC4037324 (Drug metabolism letters, 2012).

Key:
[1] = target: T1, cytochrome P450 2D6 (CYP2D6) (Homo sapiens, UniProt P10635); experiment: UV-vis spectral binding titration
Target sequence in this assay (P10635 whole entry): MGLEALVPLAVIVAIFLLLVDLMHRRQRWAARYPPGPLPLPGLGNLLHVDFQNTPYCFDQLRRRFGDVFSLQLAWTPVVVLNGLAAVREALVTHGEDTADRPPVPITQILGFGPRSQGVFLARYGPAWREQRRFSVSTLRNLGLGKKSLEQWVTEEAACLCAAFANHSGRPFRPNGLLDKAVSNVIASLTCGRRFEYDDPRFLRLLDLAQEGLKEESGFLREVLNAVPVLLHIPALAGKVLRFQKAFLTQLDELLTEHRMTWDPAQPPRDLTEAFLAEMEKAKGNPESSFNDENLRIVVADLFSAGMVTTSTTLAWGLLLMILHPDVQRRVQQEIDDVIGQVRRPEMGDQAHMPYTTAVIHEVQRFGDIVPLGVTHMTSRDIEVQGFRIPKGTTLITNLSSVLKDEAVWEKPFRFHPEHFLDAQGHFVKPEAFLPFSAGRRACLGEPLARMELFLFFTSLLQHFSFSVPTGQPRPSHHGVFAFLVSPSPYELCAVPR

[2] = target: T1, cytochrome P450 2D6 (CYP2D6); experiment: NADPH-dependent inactivation of bufuralol […]'-hydroxylation in CYP2D6 Supersomes; type: cell-based
Target sequence in this assay (P16435 2-677): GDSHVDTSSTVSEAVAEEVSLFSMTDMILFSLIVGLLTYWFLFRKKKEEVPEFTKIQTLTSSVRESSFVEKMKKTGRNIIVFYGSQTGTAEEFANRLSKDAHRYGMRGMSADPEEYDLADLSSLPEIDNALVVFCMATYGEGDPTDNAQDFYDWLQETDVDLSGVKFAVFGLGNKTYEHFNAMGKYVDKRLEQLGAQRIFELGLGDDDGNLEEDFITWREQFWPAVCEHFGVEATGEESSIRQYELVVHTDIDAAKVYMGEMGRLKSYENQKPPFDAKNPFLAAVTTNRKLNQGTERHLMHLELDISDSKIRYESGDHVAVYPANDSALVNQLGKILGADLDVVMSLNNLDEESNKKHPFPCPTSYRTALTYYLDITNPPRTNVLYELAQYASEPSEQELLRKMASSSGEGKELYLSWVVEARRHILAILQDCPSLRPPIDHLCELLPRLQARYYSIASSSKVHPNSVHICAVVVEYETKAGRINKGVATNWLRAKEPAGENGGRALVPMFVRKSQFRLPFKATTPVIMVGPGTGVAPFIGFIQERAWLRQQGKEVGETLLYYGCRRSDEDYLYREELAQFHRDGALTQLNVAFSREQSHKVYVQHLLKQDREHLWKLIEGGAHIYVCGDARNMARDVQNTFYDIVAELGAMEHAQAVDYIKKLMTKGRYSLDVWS
Target sequence in this assay (P10635 whole entry): as the sequence (P10635 whole entry) above

Row | Compound | Kd [1] [µM] | partition ratio [2]
1 | CCc1nc(C)c(CN2CCN(c3cc(C(F)(F)F)ccn3)CC2)[nH]1 [EMTPP] | 29.8 ± 3.04 | 
2 | CNC(C)Cc1ccc2c(c1)OCO2 (centres unmarked) [MDMA] |  | 91
